The experiment is filed under the species Rattus norvegicus. Put plainly: Compound was tested for inhibition of [3H]5-HT against rat whole brain using in vitro biogenic amine uptake assay using rat brain synaptosomes. Type of experiment: functional.

Data on one compound can be found in ChEMBL document CHEMBL1129671, “Substituted (pyrroloamino)pyridines: potential agents for the treatment of Alzheimer's disease” (J Med Chem, 1996).

The IC50 is the concentration needed to halve the response being measured. Read a low IC50 as greater potency.

The structures appear in SMILES notation.

For `C=Cc1cccn1N(C)c1ccncc1`, the IC50 is greater than 20 µM.
